The record followed here is ChEMBL document CHEMBL1926641, “Farinamycin, a quinazoline from Streptomyces griseus” (J Nat Prod, 2011).

Data set [1] relates to K562. In words: Cytotoxicity against human K562 cells at <= 50 ug/ml. Format: functional, cell-based.
Data set [2] deals with HUVEC. The experiment in a line: Antiproliferative activity against human HUVEC cells at <= 50 ug/ml. The data set is classed as cell-based.
The subject of data set [3] is Candida albicans. The experiment in a line: Antifungal activity against Candida albicans BMSY 212 at <= 100 ug/ml by agar diffusion assay. Format: functional, organism-based.
For data set [4], the system named is HeLa. In words: Cytotoxicity against human HeLa cells at <= 50 ug/ml. Format: functional, cell-based.
Data set [5] has as its system Bacillus subtilis. The experiment in a line: Antimicrobial activity against Bacillus subtilis ATCC 6633 at <= 100 ug/ml by agar diffusion assay. Format: functional, organism-based.
Data set [6] concerns Mycolicibacterium vaccae. In words: Antimicrobial activity against Mycobacterium vaccae IMET 10670 at <= 100 ug/ml by agar diffusion assay. Format: functional, organism-based. For orientation: In agar diffusion tests the substance spreads into inoculated agar from a disc or well.
The test system of data set [7] is Sporobolomyces salmonicolor. In words: Antimicrobial activity against Sporobolomyces salmonicolor SBUG 549 at <= 100 ug/ml by agar diffusion assay. Format: functional, organism-based.
Data set [8] relates to Staphylococcus aureus. In words: Antimicrobial activity against Staphylococcus aureus SG 511 at <= 100 ug/ml by agar diffusion assay. The data set is classed as functional, organism-based.
Data set [9] has as its system Penicillium chrysogenum. In words: Antifungal activity against Penicillium notatum JP 36 at <= 100 ug/ml by agar diffusion assay. The data set is classed as functional, organism-based.
Data set [10] relates to Pseudomonas aeruginosa. The experiment in a line: Antimicrobial activity against Pseudomonas aeruginosa K 799/61 at <= 100 ug/ml by agar diffusion assay. The data set is classed as functional, organism-based.
Data set [11] has as its system Escherichia coli. In words: Antimicrobial activity against Escherichia coli SG 458 at <= 100 ug/ml by agar diffusion assay. The data set is classed as functional, organism-based.

The source made the active and inactive calls. The rule behind the calls is not given here.

As for `NC(=O)C1=C(N)[C@@H](O)[C@H](O)[C@@H](Nc2cc(-c3nc4c(O)cccc4c(=O)[nH]3)ccc2O)C1=O` [FARINAMYCIN], the result in [1], in data set [3], in data set [4], in data set [5], in data set [6] and in data set [7] was inactive. Moreover, the result in [8], in data set [9], in [10] and in data set [11] was inactive. Also, the Activity entry in [2] was “Non-toxic”.
